# How the values were obtained:
# [1] = test system: U87 cells; test: Mitochondrial mass, MitoTracker Green; assay type: cell-based, human; conditions: 24 h
# Procedure: Next, to evaluate whether the observed compound 12-driven disturbance of mitochondrial homeostasis in glioblastoma cells involved an alteration in mitochondrial abundance, U87 cells were treated with 12 at 2 and 4 µM for 24 h and stained with MitoTracker Green, a fluorescent probe accumulated in mitochondria ΔψM-independently. […] The obtained results agree well with published data: Yang et al. and Gibellini et al. found a similar increase in mitochondrial mass in RAW264.7 macrophages and colon carcinoma RKO cells treated with CDDO-Im and CDDO, respectively. We suppose that the observed triterpenoid-induced mitogenesis in glioblastoma cells is mediated by compensatory mechanisms in response to compound 12-triggered mitochondrial stress and that it plays a cytoprotective role—high mitochondrial mass is known to be highly correlated with chemotherapy-driven redundant production of reactive oxygen species (ROS) in tumor cells and to underlie their chemoresistance.
# U87 cells were seeded at a density of 2.8 × 10^5 cells/well in 6-well plates and incubated overnight, followed by their treatment with 12 at 2 and 4 µM for 24 h. […] Thereafter, the cells were washed twice with PBS and analyzed by flow cytometry. In total, 10,000 events were recorded for each sample.
# [2] = test system: U118 cells; test: Mitochondrial membrane potential, JC-1; assay type: cell-based, human; conditions: for percentage of U118 cells with collapsed ΔψM: 12 at 4 µM, JC-1, control 4.7%
# Procedure: It is known that structural analogs of compound 12, such as SM, bardoxolone methyl and CDDO-Im, trigger the mitochondrial pathway of apoptosis in tumor cells, leading to significant dissipation of mitochondrial membrane potential (ΔψM). To evaluate the ability of 12 to affect ΔψM in glioblastoma cells, U118 cells were incubated with 12 (4 µM) for 6 and 24 h and stained with JC-1, a fluorescent probe accumulated either within highly polarized mitochondria emitting red fluorescence (JC-1 aggregates) or in cytoplasm, in the case of low ΔψM (JC-1 monomers, green fluorescence).
# […] were cultured in 6-well plates for 24 h, incubated overnight under standard conditions and treated with 12 at 4 μM for 6 and 24 h. Thereafter, the cells were harvested, resuspended at 10^6 cell/mL in JC-1-containing PBS (5 µg/mL) and incubated under standard conditions for 30 min followed by the washing of the cells with PBS and flow cytometry analysis. In total, 10,000 events were acquired for each sample.
# [3] = test system: U118 cells; test: Trans-well motility (CIM-Plate, xCELLigence); assay type: cell-based, human; conditions: U118, 12 at 100 nM, starting after 20 h
# Procedure: To evaluate the ability of tryptamide 12 to suppress the migration potential of glioblastoma cells, two independent approaches were undertaken, including assessment of cell movement on a 2D surface (scratch assay) and through a trans-well membrane (CIM-Plate).
# To assess the trans-well motility of glioblastoma cells, U118 cells were seeded in quadruplicate at 2 × 10^4 cells/well in the upper chamber of a CIM-Plate in FBS-free DMEM in the presence or absence of 12 at 100 nM. To induce trans-well motility of the cells, DMEM containing 10% FBS was placed in the lower chamber of the CIM-Plate. After that, the electrical impedance of the sensor electrodes mounted at the lower side of the porous membrane separating the upper and lower chambers of the CIM-plate was further measured using an xCELLigence RTCA DP instrument (ACEA Biosciences Inc., San Diego, CA, USA) every 1 h for 48 h.
# [4] = test system: glioblastoma cells; test: Cell survival at non-toxic concentrations; assay type: cell-based; conditions: 12 at 25–500 nM (non-toxic concentrations)
# Procedure: To evaluate the antitumor potential of 12 more comprehensively, its effects at non-toxic concentrations (25–500 nM; cell survival of ≥90%) on a range of metastatic-related processes in glioblastoma cells were studied. Firstly, we investigated the inhibitory activity of 12 on the clonogenic capacity of tumor cells in vitro, which reflects their ability to form colonies from single cells which characterizes the stemness of tumor cells and plays a crucial role in metastasis.
compound,measurement,setting,value
CC1(C)C(=O)C(C#N)=C[C@]2(C)C3=CC(=O)[C@@H]4[C@@H]5C[C@@](C)(C(=O)NCCc6c[nH]c7ccccc67)CC[C@]5(C)CC[C@@]4(C)[C@]3(C)CC[C@@H]12 [compound 12],induction of mitochondrial biogenesis,"[1]; U87, 12 at 2 µM",statistically insignificant
same,increase of mitochondrial mass compared to the control,"[1]; U87, 12 at 4 µM",1.6 fold
same,percentage of U118 cells with collapsed ΔψM,[2]; 6 h,7.5%
same,percentage of U118 cells with collapsed ΔψM,[2]; 24 h,20.4%
same,JC-1 aggregate/monomer ratios,"[2]; U118, 12 at 4 µM",significantly reduced
same,ability of cells to cross the porous membrane of the CIM-Plate,[3],significantly suppressed
same,cell survival,[4],≥ 90%

# From paper PMC9145754, “Novel Soloxolone Amides as Potent Anti-Glioblastoma Candidates: Design, Synthesis, In Silico Analysis and Biological Activities In Vitro and In Vivo” (Pharmaceuticals, 2022)
